Test results as given in US9593136B2 (priority 2011, dated 2017).
In brackets after ≈: the same amount, converted by molar mass. Like-named read-outs stand apart in the source and are kept apart here.

How the values were obtained:
Acinetobacter = assay: microbe, parasite or virus in culture; assay type: cell-based; conditions: for MIC: Acinetobacter, read-out: MIC Acinetobacter
S. pneumonia = assay: MIC against S. pneumonia; assay type: cell-based; conditions: Table 1
Description: (§1) The following compounds have been synthesized and tested for their activities against bacteria (Table 1) and their abilities to inhibit Dxr (Table 2). MIC is determined as described in Yendapally et al. (Journal of Medicinal Chemistry 2008, 51, 1487); and IC50 is determined as described in Henriksson et al. (Journal of Biological Chemistry 2007, 282, 19905).

Mtb H37Rv (ATCC 27294) = assay: microbe, parasite or virus in culture; assay type: cell-based, Mycobacterium tuberculosis; conditions: for MIC: Mycobacterium tuberculosis
E. coli k12 = assay: microbe, parasite or virus in culture; assay type: cell-based; conditions: for MIC: Escherichia coli, K12, read-out: MIC E. coli k12
E. faecalis = assay: microbe, parasite or virus in culture; assay type: cell-based; conditions: for MIC: Enterococcus faecalis, read-out: MIC E. faecalis
MRSA NRS 70 = assay: microbe, parasite or virus in culture; assay type: cell-based, S. aureus; conditions: for MIC: Staphylococcus aureus
E. coli tolc = assay: microbe, parasite or virus in culture; assay type: cell-based; conditions: for MIC: Escherichia coli, read-out: MIC E. coli tolc
S. aureus (MSSA) = assay: microbe, parasite or virus in culture; assay type: cell-based; conditions: for MIC: Staphylococcus aureus, MSSA, read-out: MIC S. aureus (MSSA)
Klebsiella = assay: MIC against Klebsiella; assay type: cell-based; conditions: Table 1
Description: as §1

B. anthracis = assay: microbe, parasite or virus in culture; assay type: cell-based, Bacillus anthracis; conditions: for MIC: Bacillus anthracis, read-out: MIC B. anthracis
P. aeruginosa = assay: MIC against P. aeruginosa; assay type: cell-based; conditions: Pseudomonas aeruginosa; Table 1
Description: as §1

M. tuberculosis Dxr = M. tuberculosis Dxr (Mycobacterium tuberculosis, UniProt P9WNS1); assay: biochemical; conditions: IC50 (μM)
M. tuberculosis Dxr, sequence (P9WNS1 whole entry, looked up): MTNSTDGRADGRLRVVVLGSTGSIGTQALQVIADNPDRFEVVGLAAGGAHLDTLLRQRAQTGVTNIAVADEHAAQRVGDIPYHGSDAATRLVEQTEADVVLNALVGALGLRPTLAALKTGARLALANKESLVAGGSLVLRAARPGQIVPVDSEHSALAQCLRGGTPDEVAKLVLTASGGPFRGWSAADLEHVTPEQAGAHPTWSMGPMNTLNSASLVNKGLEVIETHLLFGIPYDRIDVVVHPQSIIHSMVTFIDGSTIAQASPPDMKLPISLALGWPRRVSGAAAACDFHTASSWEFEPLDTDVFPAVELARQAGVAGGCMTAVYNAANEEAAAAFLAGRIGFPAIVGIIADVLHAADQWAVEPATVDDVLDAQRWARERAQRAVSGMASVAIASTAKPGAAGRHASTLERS

[1] = read-out: Mtb MIC (ug/mL) (7H9)
[2] = read-out: Mtb MIC (ug/mL) (GAST)
[3] = read-out: MIC M. tuberculosis (H37Rv)

Row | Compound | MIC (Acinetobacter) [µg/mL] | MIC (S. pneumonia) [µg/mL] | MIC (Mtb H37Rv (ATCC 27294); read-out: MIC H37 Rv) [µg/mL] | MIC (Mtb H37Rv (ATCC 27294); read-out: Mtb MIC (ug/mL)) [µg/mL] | MIC (E. coli k12) [µg/mL] | MIC (E. faecalis) [µg/mL] | MIC (MRSA NRS 70; read-out: MIC MRSA NRS 70) [µg/mL] | MIC (E. coli tolc) [µg/mL] | MIC (S. aureus (MSSA)) [µg/mL] | MIC (Klebsiella) [µg/mL] | MIC (B. anthracis) [µg/mL] | MIC (P. aeruginosa) [µg/mL] | other results
1 | CCOP(=O)(CCCN(OCCc1ccccc1)C(C)=O)OCC [GSJ 25] | > 200 | > 200 | > 200 | > 200 | > 200 | > 200 | > 200 | > 200 | > 200 | > 200 | > 200 | > 200 | 
2 | CCOP(=O)(CCCN(O)C(=O)c1cccc2ccccc12)OCC [ERJ 93] | > 200 | > 200 | > 200 |  | > 200 | 200 (≈ 547 µM) | 50 (≈ 137 µM) | > 200 | 100 (≈ 274 µM) | > 200 | 200 (≈ 547 µM) | > 200 | 
3 | CCOP(=O)(CCCN(O)C(=O)CCc1ccccc1)OCC [ERJ 70] | > 200 | > 200 | > 200 |  | > 200 | > 200 | > 200 | > 200 | > 200 | > 200 | > 200 | > 200 | MIC (Mtb H37Rv (ATCC 27294); [1]): 3.12 µg/mL (≈ 9.1 µM); MIC (Mtb H37Rv (ATCC 27294); [2]): > 200 µg/mL
4 | CCOP(=O)(CCCN(O)C(=O)c1ccccc1)OCC [ERJ 58] | > 200 | > 200 | > 200 |  | > 200 | > 200 | > 200 | > 200 | > 200 | > 200 | > 200 | > 200 | MIC (Mtb H37Rv (ATCC 27294); [1]): > 500 µg/mL; MIC (Mtb H37Rv (ATCC 27294); [2]): 31.2 µg/mL (≈ 99.1 µM)
5 | CC(=O)N(O)CCCP(=O)(O)O [FR900098, reference compound] | 50 (≈ 254 µM) |  |  | > 200 | 200 (≈ 1010 µM) | > 200 |  | 12.5 (≈ 63.4 µM) | > 200 |  | 50 (≈ 254 µM) |  | antitubercular activity (in words) (Mtb H37Rv (ATCC 27294)): inactive; MIC (Mtb H37Rv (ATCC 27294); [3]): > 500 µg/mL; MIC (MRSA NRS 70; read-out: MIC S. aureus (MRSA)): 50 µg/mL (≈ 254 µM); IC50 (M. tuberculosis Dxr): 2 µM
6 | CCOP(=O)(CCCN(OCCCCc1ccccc1)C(C)=O)OCC [GSJ 26] | > 200 | > 200 |  |  | > 200 | 200 (≈ 519 µM) | 200 (≈ 519 µM) | 200 (≈ 519 µM) | 100 (≈ 259 µM) | > 200 | > 200 | > 200 | MIC H37 Rv (Mtb H37Rv (ATCC 27294)): Some act 200; Mtb MIC (ug/mL) (Mtb H37Rv (ATCC 27294)): SA 200
7 | CCOP(=O)(CCCN(OCCCc1ccc(OC)cc1)C(C)=O)OCC [GSJ 30] | > 200 | > 200 | > 200 | > 200 | > 200 | > 200 | > 200 | > 200 | > 200 | > 200 | > 200 | > 200 | 
8 | CCOP(=O)(CCCN(OCCCc1ccccc1)C(C)=O)OCC [GSJ 27] | > 200 | > 200 | > 200 | > 200 | > 200 | > 200 | > 200 | > 200 | > 200 | > 200 | > 200 | > 200 | 
9 | CCOP(=O)(CCCN(O)C(=O)Cc1ccccc1)OCC [ERJ 91] | > 200 | > 200 | > 200 |  | > 200 | > 200 | 50 (≈ 152 µM) | > 200 | 100 (≈ 304 µM) | > 200 | > 200 | > 200 | 
10 | CCOP(=O)(CCCN(O)C(=O)c1ccc(-c2ccccc2)cc1)OCC [ERJ 104] | > 200 | > 200 | > 200 |  | > 200 | > 200 | 100 (≈ 255 µM) | 100 (≈ 255 µM) | 100 (≈ 255 µM) | > 200 | > 200 | > 200 | 
11 | CCOP(=O)(CCCN(OCCc1ccc(OC)cc1)C(C)=O)OCC [GSJ 31] | > 200 | > 200 | > 200 | > 200 | > 200 | > 200 | 50 (≈ 129 µM) | > 200 | 200 (≈ 516 µM) | > 200 | > 200 | > 200 | 
12 | CCOP(=O)(CCCN(OCc1ccccc1)C(C)=O)OCC [GSJ 20 (Rotamer B)] | > 200 | > 200 | > 200 | > 200 | > 200 | > 200 | > 200 | > 200 | > 200 | > 200 | > 200 | > 200 | 
13 | CCOP(=O)(CCCN(OC(C)c1ccccc1)C(C)=O)OCC (centres unmarked) [GSJ 28] | > 200 | > 200 | > 200 | > 200 | > 200 | > 200 | 50 (≈ 140 µM) | > 200 | 100 (≈ 280 µM) | > 200 | > 200 | > 200 | 
14 | CCOP(=O)(CCCN(O)C(=O)c1ccc2ccccc2c1)OCC [ERJ 96] | > 200 | > 200 | > 200 |  | > 200 | > 200 | > 200 | > 200 | > 200 | > 200 | > 200 | > 200 | 
15 | CC(=O)N(O)CCCP(=O)(OC(C)OC(=O)c1ccccc1)OC(C)OC(=O)c1ccccc1 (centres unmarked) [Compound 27] |  |  |  |  |  |  |  |  |  |  |  |  | MIC Acinetobacter (Acinetobacter): 100 µg/mL (≈ 203 µM); MIC M. tuberculosis (H37Rv) (Mtb H37Rv (ATCC 27294)): 100 to 200 µg/mL; MIC E. coli k12 (E. coli k12): 50 µg/mL (≈ 101 µM); MIC E. faecalis (E. faecalis): >200 µg/mL; MIC S. aureus (MRSA) (MRSA NRS 70): >200 µg/mL; MIC E. coli tolc (E. coli tolc): 50 µg/mL (≈ 101 µM); MIC S. aureus (MSSA) (S. aureus (MSSA)): >200 µg/mL; MIC B. anthracis (B. anthracis): 50 µg/mL (≈ 101 µM)
16 | O=CN(O)CCCP(=O)(O)O [Fosmidomycin, reference compound] | 100 (≈ 546 µM) |  |  |  | 12.5 (≈ 68.3 µM) | > 200 |  | 6.25 (≈ 34.1 µM) | > 200 |  | 0.78 (≈ 4.26 µM) |  | MIC (Mtb H37Rv (ATCC 27294); read-out: MIC 7H9 (μg/mL)): > 500 µg/mL; MIC (Mtb H37Rv (ATCC 27294); read-out: MIC GAST/Fe (μg/mL)): > 500 µg/mL; MIC (Mtb H37Rv (ATCC 27294); [3]): > 500 µg/mL; MIC (MRSA NRS 70; read-out: MIC S. aureus (MRSA)): 200 µg/mL (≈ 1090 µM); activity against B. anthracis (MIC) (B. anthracis): 0.78 lg/mL
17 | CCOP(=O)(CCCN(O)C(=O)CCCc1ccccc1)OCC [ERJ 79] | > 200 | > 200 | > 200 |  | > 200 | > 200 | 50 (≈ 140 µM) | > 200 | 100 (≈ 280 µM) | > 200 | > 200 | > 200 | MIC (Mtb H37Rv (ATCC 27294); [1]): 3.12 µg/mL (≈ 8.74 µM); MIC (Mtb H37Rv (ATCC 27294); [2]): > 200 µg/mL
